{"source": "patent US20240091366A1", "about": "“NOVEL ACID-SENSITIVE APTAMER TRIPTOLIDE CONJUGATE AND APPLICATIONS” (priority 2022, published 2024)", "key": {"[1]": {"test_system": "breast cancer cell line MDA-MB-231", "assay": "MTT assay, cell proliferation inhibition", "assay_type": "cell-based", "conditions": "for cell proliferation inhibition rate: 48 h, samples 1-3", "from_the_text": "(§1) Material: aptamer triptolide conjugate (AS1411-TP). Triptolide (TP) was provided by Shanghai Yaji Biotechnology Co. Ltd; aptamer (AS1411) was obtained from Chengdu Pilot Drug Development Co. Ltd; trypsin, thiazolyl blue (MTT) (Biofroxx, Germany); dimethyl sulfoxide (DMSO) (MP Biomedicals, France); fetal bovine serum (FBS) (Newzerum, New Zealand); DMEM medium, RPMI1640 medium, Petri dishes, 96-well plates (Corning, USA); colon cancer cells HCT116, breast cancer cells MDA-MB-231, non-small-cell lung cancer cells A549, pancreatic cancer cells PANC-1, and hepatocellular carcinoma cells HepG2 were purchased from the Shanghai Cell Bank of the Chinese Academy of Sciences and preserved in the laboratory.\n(§2) Take the tumor cells HCT116, MDA-MB-231, A549, PANC-1 and HepG2 cell lines from the liquid nitrogen tank, place them in a 37° C. water bath, wait for the frozen cells to melt into cell suspension, centrifuge the cells at 1000 r/min for 3 min, discard the supernatant, add 1 ml of fresh complete medium containing 10% fetal bovine serum and 1% double antibody to mix the cells, then add 5 ml of medium, gently and repeatedly blowing the cells with a pipette gun to make them mix well. Then add 5 ml of medium, blow the cells gently and repeatedly with a pipette gun to mix them well, and finally transfer the cell suspension to a […] and label the cell name, cell number, date of resuscitation and the operator's name, and place it in a cell culture incubator for cultivation. (HCT116, PANC-1 and HepG2 cell lines were cultured in DMEM medium, while MDA-MB-231 cell line and A549 cell line were cultured in RPMI1640 medium).\n(§3) Take HCT116, MDA-MB-231, A549, PANC-1, HepG2 cells with good growth status, remove the medium, add 1 ml of sterile PBS to wash, add 1.5 ml of trypsin to digest the cells, about 2 min later the cells become round and fall off, add 1.5 ml of medium to terminate the digestion, transfer it to centrifugal tube, centrifuge at 1000 r/min for 3 min, discard the supernatant, add 1 ml of fresh medium to resuspend, then add fresh medium for 1:3 distribution to other culture dishes, and label the date of transmission and the number of generations. Place in the cell culture incubator for cultivation.\n(§4) Take HCT116, MDA-MB-231, A549, PANC-1, HepG2 cells with good growth status, by the same operation as the cell passaging experiment, after cell resuspension, cell counting with hemocyte counting plate, with 2500 cells/well, plant in 96-well plate, after 24 h of cell culture, remove the original medium, add medium containing different concentrations of drugs and continue to cultivate for 48 hours. After 24 h of cell culture, the original medium was removed and the medium containing different concentrations of drugs was added to continue the culture for 48 hours. […] The above steps were repeated three times."}, "[2]": {"test_system": "colon cancer cell line HCT116", "assay": "MTT assay, cell proliferation inhibition", "assay_type": "cell-based", "conditions": "for cell proliferation inhibition rate: 48 h, samples 1-3", "from_the_text": "as §1, §2, §3, §4"}, "[3]": {"test_system": "hepatocellular carcinoma cell line HepG2", "assay": "MTT assay, cell proliferation inhibition", "assay_type": "cell-based", "conditions": "for cell proliferation inhibition rate: 48 h, samples 1-3", "from_the_text": "as §1, §2, §3, §4"}, "[4]": {"test_system": "lung adenocarcinoma cell line A549", "assay": "MTT assay, cell proliferation inhibition", "assay_type": "cell-based", "conditions": "for cell proliferation inhibition rate: 48 h, samples 1-3", "from_the_text": "as §1, §2, §3, §4"}, "[5]": {"test_system": "pancreatic cancer cell line PANC-1", "assay": "MTT assay, cell proliferation inhibition", "assay_type": "cell-based", "conditions": "for cell proliferation inhibition rate: 48 h, samples 1-3", "from_the_text": "as §1, §2, §3, §4"}, "[6]": {"assay": "Body weight during administration, colon cancer model", "conditions": "HCT116 model, during 8 times of administration", "description": "Female nude mice were reared for 6-7 weeks under standard environment, colon cancer cells HCT116 were suspended in serum-free medium, and each mouse was inoculated with 5*10^6 tumor cells. When the tumor volume reached 50-100 mm^3, the mice were randomly divided into 4 groups, and were injected with aptamer triptolide conjugate, triptolide, and aptamer by tail vein, respectively, 12 mice in each group. A PBS negative control group was set up. […] The drugs were administered once every 2 days for 8 consecutive doses, and the experiment was ended 24 hours after the last dose. At the end of the experiment, the animals were executed by breaking the cervical vertebrae, and the tumors were stripped and weighed to calculate the tumor growth inhibition rate of the drug. The t-test was used to compare the tumor weight, tumor volume, RTV and other indexes of the animals in each group."}}, "note": "“And” between values parts separate entries of the source, which are not always exact repeats. Identical values can stand only once."}
{"substance": "AS1411: nucleolin aptamer, single-stranded oligonucleotide, SEQ ID NO: 1 GGTGGTGGTGGTTGTGGTGGTGGTGG", "values": [{"measurement": "cell proliferation inhibition rate", "setting": "[1]; MDA-MB-231, 3.1 nM, 0.0031 µM", "value": "2.2910 and 2.1209 and 2.5159"}, {"measurement": "cell proliferation inhibition rate", "setting": "[1]; MDA-MB-231, 6.3 nM, 0.0063 µM", "value": "3.2333 and 4.9611 and 4.2994"}, {"measurement": "cell proliferation inhibition rate", "setting": "[1]; MDA-MB-231, 25.0 nM, 0.025 µM", "value": "5.5843 and 7.7330 and 4.4586"}, {"measurement": "cell proliferation inhibition rate", "setting": "[1]; MDA-MB-231, 50.0 nM, 0.05 µM", "value": "6.8129 and 6.6467 and 6.1306"}, {"measurement": "cell proliferation inhibition rate", "setting": "[1]; MDA-MB-231, 100.0 nM, 0.1 µM", "value": "9.0069 and 8.0722 and 8.6624"}, {"measurement": "cell proliferation inhibition rate", "setting": "[1]; MDA-MB-231, 200.0 nM, 0.2 µM", "value": "14.4727 and 11.8492 and 10.6369"}, {"measurement": "inhibitory effect on tumor cell", "setting": "[1]; MDA-MB-231, at the experimental concentration", "value": "did not have any significant inhibitory effect"}, {"measurement": "cell proliferation inhibition rate", "setting": "[2]; HCT116, 6.3 nM, 0.0063 µM", "value": "2.9669 and 1.6683 and 3.1584"}, {"measurement": "cell proliferation inhibition rate", "setting": "[2]; HCT116, 12.5 nM, 0.0125 µM", "value": "4.1987 and 3.0229 and 2.5102"}, {"measurement": "cell proliferation inhibition rate", "setting": "[2]; HCT116, 25.0 nM, 0.025 µM", "value": "5.4987 and 6.2971 and 5.6986"}, {"measurement": "cell proliferation inhibition rate", "setting": "[2]; HCT116, 50.0 nM, 0.05 µM", "value": "6.5424 and 6.5952 and 5.0330"}, {"measurement": "cell proliferation inhibition rate", "setting": "[2]; HCT116, 100.0 nM, 0.1 µM", "value": "10.6504 and 12.1637 and 10.9076"}, {"measurement": "cell proliferation inhibition rate", "setting": "[2]; HCT116, 200.0 nM, 0.2 µM", "value": "16.9608 and 13.5881 and 14.2937"}, {"measurement": "inhibitory effect on tumor cell", "setting": "[2]; HCT116, at the experimental concentration", "value": "did not have any significant inhibitory effect"}, {"measurement": "cell proliferation inhibition rate", "setting": "[3]; HepG2, 3.1 nM, 0.0031 µM", "value": "2.0417 and 2.2455 and 2.1946"}, {"measurement": "cell proliferation inhibition rate", "setting": "[3]; HepG2, 12.5 nM, 0.0125 µM", "value": "3.5280 and 2.4483 and 3.6148"}, {"measurement": "cell proliferation inhibition rate", "setting": "[3]; HepG2, 25.0 nM, 0.025 µM", "value": "4.1258 and 3.9268 and 4.1946"}, {"measurement": "cell proliferation inhibition rate", "setting": "[3]; HepG2, 50.0 nM, 0.05 µM", "value": "8.4300 and 6.9712 and 9.6253"}, {"measurement": "cell proliferation inhibition rate", "setting": "[3]; HepG2, 100.0 nM, 0.1 µM", "value": "7.2906 and 11.7328 and 8.7216"}, {"measurement": "cell proliferation inhibition rate", "setting": "[3]; HepG2, 200.0 nM, 0.2 µM", "value": "10.3764 and 15.8325 and 9.9457"}, {"measurement": "inhibitory effect on tumor cell", "setting": "[3]; HepG2, at the experimental concentration", "value": "did not have any significant inhibitory effect"}, {"measurement": "cell proliferation inhibition rate", "setting": "[4]; A549, 12.5 nM, 0.0125 µM", "value": "5.5843 and 7.7330 and 4.4586"}, {"measurement": "cell proliferation inhibition rate", "setting": "[4]; A549, 25.0 nM, 0.025 µM", "value": "6.8129 and 6.6467 and 6.1306"}, {"measurement": "cell proliferation inhibition rate", "setting": "[4]; A549, 50.0 nM, 0.05 µM", "value": "9.0069 and 8.0722 and 7.6624"}, {"measurement": "cell proliferation inhibition rate", "setting": "[4]; A549, 100.0 nM, 0.1 µM", "value": "11.4727 and 11.8492 and 10.6369"}, {"measurement": "cell proliferation inhibition rate", "setting": "[4]; A549, 200.0 nM, 0.2 µM", "value": "14.5704 and 11.4171 and 14.3285"}, {"measurement": "inhibitory effect on tumor cell", "setting": "[4]; A549, at the experimental concentration", "value": "did not have any significant inhibitory effect"}, {"measurement": "cell proliferation inhibition rate", "setting": "[5]; PANC-1, 12.5 nM, 0.0125 µM", "value": "3.6656 and 3.5639 and 3.6148"}, {"measurement": "cell proliferation inhibition rate", "setting": "[5]; PANC-1, 25.0 nM, 0.025 µM", "value": "3.0417 and 4.2455 and 4.1946"}, {"measurement": "cell proliferation inhibition rate", "setting": "[5]; PANC-1, 50.0 nM, 0.05 µM", "value": "7.2954 and 7.9552 and 9.6253"}, {"measurement": "cell proliferation inhibition rate", "setting": "[5]; PANC-1, 100.0 nM, 0.1 µM", "value": "8.3147 and 7.1285 and 8.7216"}, {"measurement": "cell proliferation inhibition rate", "setting": "[5]; PANC-1, 200.0 nM, 0.2 µM", "value": "9.6236 and 10.2679 and 9.9457"}, {"measurement": "inhibitory effect on tumor cell", "setting": "[5]; PANC-1, at the experimental concentration", "value": "did not have any significant inhibitory effect"}, {"measurement": "body weights of mice", "setting": "[6]", "value": "basically maintained in the tolerable range of animal toxicity and side-effects"}]}
